Assay results published in patent US8815499B2, “In situ detoxification of fermentation inhibitors with reducing agents” (priority 2009, dated 2014).
Like-named read-outs stand apart in the source and are kept apart here.

Tests used:
[1] = system: yeast Saccharomyces cerevisiae
Protocol: A spruce slurry was prepared an subjected to acidic hydrolysis as described in Example 6. […] Sodium dithionite was added to different samples to concentrations of 2.5, 5, 7.5, 10, 12.5, and 15 mM. The treatments were performed at 21° C. for 5 min with stirring. In addition, treatments with 0.1% (7.9 mM) and 1% (79.3 mM) sodium sulphite were performed. […] Furthermore, a sugar solution (glucose 18 g/L, mannose 14 g/L) was prepared to evaluate if the effect of the sodium dithionite treatment was due to an effect on the hydrolysate or the ethanolic fermentation with yeast. Half of the sugar solution was treated with 10 mM sodium dithionite, whereas the rest was left untreated as a reference. The volumes of treated and untreated samples were equalized with water and the pH was adjusted to pH 5.5 prior to the fermentation. Fermentation was performed with the yeast Saccharomyces cerevisiae as described in the previous Examples.
Spruce hydrolysate samples were prepared as in Example 6.
Two samples were treated with DTT to 2 and 20 mM, respectively, two samples were treated with ascorbic acid to 10 and 100 mM, respectively and two samples were treated with glutathione to 1 and 10 mM, respectively.
The treatment time was 3 h for all samples and fermentation was performed as described in the previous Examples.

[2] = system: baker's yeast (Saccharomyces cerevisiae); type: cell-based
Protocol: The pH of the sugarcane bagass and spruce hydrolysates were adjusted to 5.5 with a 5 M solution of sodium hydroxide. The conditioning of each hydrolysate was performed in eight 100-mL glass vessels equipped with magnetic stirrer bars. 26 mL hydrolysate was added to all vessels, and the vessels were placed on a magnetic stirrer plate (IKA-Werke, Staufen, Germany). Sodium dithionite (chemical grade; >87%, Merck, Darmstadt, Germany) was added to hydrolysates in the concentrations 5 and 10 mM. Additions of sodium sulphite to 5 and 10 mM were also performed. The additions were made at room temperature (23° C.) and the samples were kept for 10 min with stirring. The experiments were performed in duplicates.
The efficiency of the additions of the reducing agents was compared with alkali detoxification.
Ethanol measurements were performed by using an enzymatic kit (Ethanol UV-method, Boehringer Mannheim GmbH, Mannheim, Germany). Fermentation experiments were performed to evaluate the effectiveness of the additions and treatments. For comparison, untreated hydrolysates were included in the fermentation experiments as well as reference fermentations of sugar-based medium with an amount of fermentable sugars (i.e. glucose and mannose) corresponding to that in the hydrolysate samples. The fermentations were carried out using baker's yeast (Saccharomyces cerevisiae) (Jästbolaget AB, Rotebro, Sweden). The yeast inoculum was prepared in 750-mL cotton-plugged shake flasks with 300 mL YEPD medium ([…], 2% D-glucose). The flasks were inoculated and incubated with agitation at 30° C. for approximately 12 h. The cells were harvested in the late exponential growth phase by centrifugation (Hermla Z206A, Hermle Labortechnik GmbH, Wehingen, Germany) at 1,500 g for 5 min. The cells were resuspended in an appropriate amount of sterile water to achieve an inoculum consisting of 2.0 g/L (cell dry weight) in all fermentation vessels. The fermentation was carried out in 14 25-mL glass flasks equipped with magnets for stirring and sealed with rubber plugs pierced with cannulas for letting out carbon dioxide. The hydrolysate samples (23.75 mL), or alternatively the sugar solution for reference fermentations, were added to the fermentation flasks along with 0.5 mL of a nutrient solution (150 g/L yeast extract, 75 g/L (NH4)2HPO4, 3.75 g/L MgSO4.7 H2O, 238.2 g/L NaH2PO4.H2O), and 0.75 mL of yeast inoculum. The flasks were incubated at 30° C. in a water bath with magnetic stirring (IKA-Werke). Samples for measurement of sugars and ethanol were withdrawn during the fermentation. The glucose levels during the fermentation were estimated by using a glucometer (Glucometer Elite XL, Bayer AG, Leverkusen, Germany).

[3] = system: yeast Saccharomyces cerevisiae; experiment: Simultaneous saccharification and fermentation (SSF) of sugarcane bagass slurry; type: cell-based; conditions: 7.5 and 10 mM, FIG. 9
Protocol: SSF experiments were also performed with sugarcane bagass slurries. […] Reducing agents, dithionite and sulphite, respectively, were added 10 min prior to inoculum in concentrations of studied 7.5 and 10 mM. The ethanol concentration was measured after 13 and 45 hours according to the protocol described in Example 1.

[4] = system: yeast Saccharomyces cerevisiae; experiment: Simultaneous saccharification and fermentation (SSF) of spruce slurry; type: cell-based; conditions: for Ethanol concentration: after 70 hours
Protocol: Addition of sodium dithionite and sodium sulphite was tested in an SSF process. Spruce was pretreated as described in Example 1 above. The spruce slurry was adjusted to pH 5.4 with a 5 M solution of sodium hydroxide. Ten 250-mL shake flasks equipped with magnetic stirrer bars were filled with 100 g of spruce slurry. Sodium dithionite or sodium sulphite was added to the slurries to final concentrations of 7.5 and 10 mM. The additions were performed at room temperature (23° C.) for 10 min with stirring. Duplicate experiments were made. Cellulase and cellobiase preparations were prepared and added to the slurry using the enzyme activity loadings as described in Example 1 above. Further, the yeast inoculum was prepared according to Example 1 above. Inoculums were added to give a start concentration of 2.0 g/L (cell dry weight) in every flask. No source of extra nutrients was added. For comparison, two flasks with spruce slurry to which no reducing agents had been added were included in the experiment. The flasks were incubated at 35° C. for 69 h in a water bath with magnetic stirring. The flasks were sealed with Parafilm (Pechiney Plastic Packaging Company, Chicago, Ill., USA) to prevent evaporation of ethanol. Samples were withdrawn for analysis of ethanol according to Example 1 above.
A spruce slurry was prepared according to Examples 1 and 2 above. Different flasks were filled with 100 g each of the spruce slurry and were subjected to a SSF process according to Example 2 above, but with different amounts of dithionite and sulphite added. The produced ethanol was monitored during the fermentation. […]

[5] = system: yeast Saccharomyces cerevisiae; experiment: Fermentation of sugar solution with model inhibitor coniferyl aldehyde; conditions: sugar solution with coniferyl aldehyde (2.5 mM), untreated, FIG. 12
Protocol: (§1) A sugar solution (glucose 18 g/L, mannose 14 g/L) with a coniferyl aldehyde concentration of 2.5 mM was prepared. Half of the solution was treated with 10 mM of sodium dithionite and the rest of the solution was left untreated as a reference. Fermentation was performed with the yeast Saccharomyces cerevisiae as described in the previous Examples.

[6] = as above; conditions: Saccharomyces cerevisiae
Protocol: as §1

[7] = bagass hydrolysate, 6 h fermentation, 10 mM
[8] = spruce hydrolysate, 14 h fermentation, 10 mM

O[C@H](CS)[C@H](O)CS (racemic) [DTT, Dithiothreitol]
Fermentability ([1]; acid spruce hydrolysate, 20 mM, treatment time 3 h): improved fermentability
Glucose consumption rate compared with the untreated sample ([1]; acid spruce hydrolysate, 20 mM, treatment time 3 h, FIG. 13): higher glucose consumption rate

N [NH4OH, ammonium hydroxide, reference compound]
Yield ([2]; bagass hydrolysate, 6 h fermentation, NH4OH detoxification): 0.34 g EtOH/g consumed glucose & mannose
Yield ([2]; spruce hydrolysate, 14 h fermentation, NH4OH detoxification): 0.43 g EtOH/g consumed glucose & mannose
Ethanol concentration ([1]; NH4OH treatment, 2.75 h): 4.56 g/L
Productivity ([1]; NH4OH treatment, 2.75 h): 1.66 g EtOH × L^−1 × h^−1
Yield ([1]; NH4OH treatment, 2.75 h): 0.30 g EtOH/g consumed glucose and mannose
Ethanol concentration ([1]; NH4OH treatment, 4.25 h): 10.75 g/L
Productivity ([1]; NH4OH treatment, 4.25 h): 2.53 g EtOH × L^−1 × h^−1
Yield ([1]; NH4OH treatment, 4.25 h): 0.42 g EtOH/g consumed glucose and mannose
Ethanol concentration ([1]; NH4OH treatment, 6.25 h): 9.81 g/L
Productivity ([1]; NH4OH treatment, 6.25 h): 1.57 g EtOH × L^−1 × h^−1
Yield ([1]; NH4OH treatment, 6.25 h): 0.32 g EtOH/g consumed glucose and mannose
Ethanol concentration ([1]; NH4OH treatment, 9.25 h): 14.08 g/L
Productivity ([1]; NH4OH treatment, 9.25 h): 1.52 g EtOH × L^−1 × h^−1
Yield ([1]; NH4OH treatment, 9.25 h): 0.47 g EtOH/g consumed glucose and mannose
Viable cells ([1]; acid spruce hydrolysate, NH4OH treatment, fermentation time 2.25 h): 95.3 ± 3.0%

O=S([O-])[O-].[Na+].[Na+] [Sulphite, sodium sulphite]
Balanced ethanol yield [2, 7]: 0.21 g EtOH/Σglucose & mannose prior to detoxification
Productivity [2, 7]: 2.9 g EtOH × L^−1 × h^−1
Yield [2, 7]: 0.32 g EtOH/g consumed glucose & mannose
Ethanol production ([2]; bagass hydrolysate, 6 h fermentation, FIG. 4): high ethanol production
Glucose consumption rates and amounts of ethanol produced ([2]; spruce hydrolysate, 10 mM, FIGS. 1 and 2): substantial improvement
Balanced ethanol yield [2, 8]: 0.16 g EtOH/Σglucose & mannose prior to detoxification
Productivity [2, 8]: 1.2 g EtOH × L^−1 × h^−1
Yield [2, 8]: 0.29 g EtOH/g consumed glucose & mannose
Fermentability (glucose consumption) ([1]; acid spruce hydrolysate, 1% (79.3 mM), FIG. 11): better fermentability compared to the untreated hydrolysate
Fermentability (ethanol production after 13 and 45 hours) [3]: improved fermentability
Ethanol concentration ([4]; 2.5 mM): did not result in as high final ethanol concentrations
Ethanol concentration ([4]; 5 mM): did not result in as high final ethanol concentrations
Ethanol concentration ([4]; 7.5 mM): 35 to 40 g/L
Ethanol concentration ([4]; 10 mM): 35 to 40 g/L
Ethanol concentration ([4]; 15 mM): about 40 g/L
Ethanol concentration ([4]; 20 mM): about 40 g/L
Ethanol concentration ([4]; 30 mM): about 40 g/L
Ethanol production compared to the untreated hydrolysate ([4]; 7.5 and 10 mM, FIG. 5): higher ethanol production
Time after which ethanol formation leveled off ([4]; 7.5 and 10 mM, FIG. 5): 20 h

O=C1O[C@H]([C@@H](O)CO)C(O)=C1O [ascorbic acid]
Fermentability ([1]; acid spruce hydrolysate, 100 mM, treatment time 3 h): improved fermentability

COc1cc(/C=C/C=O)ccc1O [coniferyl aldehyde, reference compound]
Glucose consumption [5]: approximately no reduced glucose concentration
viability at 2.25 h, 2.5 mM [6]: 1.7%
viability at 7 h, 2.5 mM [6]: 0%

N[C@@H](CCC(=O)N[C@@H](CS)C(=O)NCC(=O)O)C(=O)O [glutathione, reduced glutathione]
Fermentability ([1]; acid spruce hydrolysate, 10 mM, treatment time 3 h): improved fermentability
